In patent publication US5032577A, “Peptidylaminodiols” (Abbott Laboratories, priority 1987, dated 1991):
Where a name gives a salt, the structure may show the parent alone. Read-outs that look alike come from different tables or passages of the source.

Target: T1, human renal renin (Homo sapiens, UniProt P00797)
T1 construct: human renal renin, free from acid proteolytic activity; from tissue
T1 sequence (P00797 67-406): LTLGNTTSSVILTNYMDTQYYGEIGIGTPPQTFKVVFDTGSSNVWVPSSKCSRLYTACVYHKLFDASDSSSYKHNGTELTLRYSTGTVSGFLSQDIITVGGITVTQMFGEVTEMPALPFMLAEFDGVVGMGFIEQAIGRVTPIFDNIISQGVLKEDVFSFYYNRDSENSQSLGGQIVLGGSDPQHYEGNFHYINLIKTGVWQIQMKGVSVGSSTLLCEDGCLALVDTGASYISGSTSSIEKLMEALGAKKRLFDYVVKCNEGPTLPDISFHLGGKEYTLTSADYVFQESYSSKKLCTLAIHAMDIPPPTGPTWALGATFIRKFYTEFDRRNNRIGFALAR
Experiment: Inhibition of human renal renin in vitro; angiotensin I formed measured by radioimmunoassay
Type: biochemical

Compound | IC50 | IC50 (human renal renin free from acid proteolytic activity, renin substrate human angiotensinogen, 37° C., pH 6.0)
CC(C)C[C@H](NC(=O)[C@H](Cc1ccccc1)NC(=O)OCCCOC(=O)CN)C(=O)N[C@@H](CC1CCCCC1)[C@@H](O)[C@@H](O)CC(C)C [Example 93, H-Gly-Ester of the Resultant Compound of Example 91 (at 3-Hydroxypropyloxy Group)] | 0.55 nM | –
CC(C)C[C@H](NC(=O)[C@H](Cc1ccccc1)NC(=O)OCC(O)CO)C(=O)N[C@@H](CC1CCCCC1)[C@@H](O)[C@@H](O)CC(C)C (stereo partly drawn) [Example 97, 2(R,S),3-Dihydroxypropyloxycarbonyl-Phe-Leu Amide of 2(S) -Amino-1-cyclohexyl-3(R),4(S)-dihydroxy-6-methylheptane] | 0.3 nM | –
COc1ccc(C[C@H](N)C(=O)N[C@@H](CC(C)C)C(=O)N[C@@H](CC2CCCCC2)[C@@H](O)[C@@H](O)CC(C)C)cc1 [Example 55, H-(4-OCH3)Phe-Leu Amide of 2(S)-Amino-1-cyclohexyl-3(R),4(S)-dihydroxy-6-methylheptane] | 2 nM | –
CC(C)C[C@H](O)[C@H](O)[C@H](CC1CCCCC1)NC(=O)[C@H](Cc1c[nH]cn1)NC(=O)[C@H](Cc1ccccc1)NC(=O)C1CCNCC1 [Example 68, H-Isonipectoyl-Phe-His Amide of 2(S)-Amino-l-cyclohexyl-3(R),4(S)-dihydroxy-6-methylheptane Diacetic Acid Salt] | 1 nM | –
CC(C)C[C@H](O)[C@H](O)[C@H](CC1CCCCC1)NC(=O)[C@H](Cc1ccccc1)NC(=O)[C@H](Cc1ccccc1)NC(=O)OC(C)(C)C [Example 34, Boc-Phe-Phe Amide of 2(S)-Amino-l-cyclohexyl-3(R),4(S)-dihYdroxy-6-methYlheptane] | – | 1.5 nM
